Reference: PMC6154319, “Intestinal Transport Characteristics and Metabolism of C-Glucosyl Dihydrochalcone, Aspalathin” (Molecules : A Journal of Synthetic Chemistry and Natural …, 2017)

Columns and labels:
[1] = Kinetic solubility assay (miniaturised shake flask); format: physicochemical; conditions: 2 h, 25 °C, 2% DMSO
Description: The kinetic solubility assay was performed using a miniaturised shake flask method. A 10 mM stock solution of aspalathin was used to prepare calibration standards (10–220 µM) in dimethyl sulphoxide (DMSO), and to spike (1:50) duplicate aqueous samples of phosphate buffered saline (pH 6.5), 0.01 M HCl (pH 2), and FaSSIF (pH 6.5), with a final DMSO concentration of 2%. After shaking for 2 h at 25 °C, the solutions were filtered (multiscreen filter plates, 0.45 µm low-binding, hydrophilic polytetrafluoroethylene (PTFE), Merck) and analysed by means of HPLC-DAD (Agilent 1200 Rapid Resolution HPLC; Agilent Technologies, Inc., Santa Clara, CA, USA). Best fit calibration curves were constructed using the calibration standards, which were used to determine the solubility of the aqueous samples [43].

Caco-2 monolayer = experiment: in vitro
Description: Validation of the Caco-2 transport experiments required consideration of three parameters, i.e., firstly, to determine the cytotoxic concentrations of synthetic aspalathin, secondly, the concentration of aspalathin required to ensure HPLC detection in the basolateral compartment, and finally, to assess whether the transport of aspalathin is concentration dependent.
Cells were cultured at 37 °C and 5% CO2 in 95% humidified air in Eagle’s Minimum Essential Medium (EMEM) containing sodium […] pyruvate, supplemented with 2 mM L-glutamine, 1% non-essential amino acids and 10% heat inactivated FBS. Cell cultures were split when 70%–80% confluent, using trypsin/ethylenediaminetetraacetic acid (EDTA). The culture medium, pre-warmed to 37 °C, was refreshed every 2–3 days. Cells were seeded at 1 × 10^4 cells/cm^2 and a sub-cultivation ratio of 1:3 was routinely used. Cells were seeded with the addition of 1% penicillin/streptomycin mixture (10,000 units/mL potassium penicillin and 10,000 µg/mL streptomycin sulphate) at 4 × 10^4 cells/cm^2 onto 0.4 µm polycarbonate 6-well inserts with an insert area of 4.52 cm^2. Cells were used for transport experiments when TEER values across wells were >300 Ω, typically 21–23 days post confluence. Only passages 50–60 were used to prevent phenotypic drift.
The cell monolayers were equilibrated briefly with transport buffer, pH 6.0 (HBSS with 2-(N-morpholino) ethanesulphonic acid (MES)) on the apical side and pH 7.4 (HBSS with HEPES) on the basolateral side, to remove traces of the culture media. Following this, transport buffers were added for 30 min prior to the addition of treatment (inhibitors were added during this step when required, as well as during the subsequent treatment incubation step). After equilibration, the plates containing transport medium were incubated for 30 min at 37 °C at 5% CO2 in 95% humidified air and the TEER value of the monolayer determined. […] For basolateral-to-apical compartment studies, 2.4 mL of treatment at the same concentrations in HBSS (pH 7.4), was added to the basolateral compartment.
To assess whether aspalathin was co-transported with glucose, its transport (100 µM) at both high (20.5 mM) and low (5.5 mM) glucose concentrations, mimicking the intestinal lumen glucose concentrations pre- and post-meals, was monitored. This was followed by experiments performed in the presence and absence of SGLT1 (100 µM phloridzin), GLUT2 (100 µM phloretin) and efflux, PgP (100 µM verapamil) inhibitors.
Samples (1.2 mL) were withdrawn from the basolateral or the apical compartment to measure the concentration of aspalathin uptake and efflux, respectively at 0, 0.5, 1, 1.5, and 2 h under sink conditions (the sample aliquot replaced with equal volume of relevant transport buffer). Sample aliquots (350 µL) were frozen in liquid nitrogen after the addition of ascorbic acid (35 µL of 10% solution) and stored at −65 °C until HPLC analysis. Results were corrected for dilution and expressed as cumulative transport (% of initial dose) as a function of time. Papp (cm/s) for bi-directional transport studies was calculated as previously described. Transport of other major flavonoids in the matrices, i.e., nothofagin, the 3-deoxy analogue of aspalathin and its flavone derivatives, orientin and isoorientin, were also determined.
Lucifer yellow (final concentration 0.1 mM) was used as a membrane integrity marker and co-incubated with the compounds and extracts.
HPLC-DAD analysis of samples from the apical and basolateral compartments was performed in duplicate on an Agilent 1200 system as previously described. Basolateral and apical samples taken after 2 h with pure aspalathin were also analysed using LC-MS (parameters described in [42]) to determine whether aspalathin metabolites were formed in the Caco-2 model.
All experiments were performed in triplicate and the data expressed as mean ± SD, unless otherwise indicated.

## O=C(CCc1ccc(O)c(O)c1)c1c(O)cc(O)c([C@@H]2O[C@H](CO)[C@@H](O)[C@H](O)[C@H]2O)c1O [Aspalathin]
[1]; 0.01 M HCl (pH 2)
  Kinetic solubility at pH 2: 153 µM
[1]; FaSSIF (pH 6.5)
  Kinetic solubility in FaSSIF at pH 6.5: 119 µM
[1]; phosphate buffered saline (pH 6.5)
  Kinetic solubility at pH 6.5: 123 µM
Caco-2 monolayer; Caco-2
  Papp a-b with high glucose: 2.90 ± 0.75 × 10^−7 cm/s
  Papp a-b − Inhibitor: 1.73 ± 0.97 ×10^−6 cm/s
  Papp b-a: 2.15 ± 0.23 × 10^—6 cm/s
  Papp b-a − Inhibitor: 2.09 ± 0.23 ×10^−6 cm/s
Caco-2 monolayer; buffered solution of synthetic aspalathin, 1 µM
  Papp (cm/s) a-b × 10^−6: 2.28 ± 0.09 cm/s × 10^−6
Caco-2 monolayer; from aspalathin-enriched green rooibos extract SB1, 0.38 mg/mL (153, 11, 17, 9 µM aspalathin, nothofagin, isoorientin, orientin)
  Papp (cm/s) a-b × 10^−6: 2.00 ± 1.10 cm/s × 10^−6
Caco-2 monolayer; from semi-purified fraction PEF1, 0.15 mg/mL (149, 21, 12, 8 µM aspalathin, nothofagin, isoorientin, orientin)
  Papp (cm/s) a-b × 10^−6: 2.11 ± 0.20 cm/s × 10^−6
